Measurements taken from patent US11945813B2, “5-substituted 4-amino-1H-benzo[c][1,2,6]thiadiazine 2,2-dioxides and formulations and uses thereof” (Firmenich Incorporated, priority 2018, dated 2024).

Legend:
[1] = Sensory evaluation of inherent sweetness of test compound; format: in vivo, human; conditions: test compound alone at 10 ppm
Description: (§1) Test samples containing either a sweetener (sucrose or high-fructose corn syrup) alone or in combination with a test compound were presented in pairs to a group of panelists who were asked to determine which of the samples was sweeter. Subjects refrained from eating or drinking (except water) for at least 1 hour prior to the test. Subjects rinsed with water several times to clean the mouth. The samples within a paired comparison test were presented in a randomized, counterbalanced order. Panelists had up to a 1 minute delay between taste tests to clear the mouth of any tastes. Binomial probability tables were used to determine the probability of the correct number of responses occurring for each test at alpha-0.05.
(§2) Stock solutions of test compounds were prepared at 1000× final concentration with ethanol to ensure dispersion in solution. Test compound samples including sucrose were prepared by diluting the stock solutions in a low sodium buffer (0.952 g of KCl, 5.444 g of Na2HPO4, and 0.952 g of KH2PO4 in deionized ultrafiltered water) at pH 7.1 and containing sucrose. Test compound samples including high fructose corn syrup were prepared by diluting the stock solutions in the low sodium buffer at pH 2.8 (using citric acid to adjust the pH) and containing high fructose corn syrup. Control samples were balanced to 0.1% ethanol final.
Compound 200 was also tested for inherent sweetness. […]

T1R2/T1R3 taste receptor = molecular target: T1, T1R2/T1R3 taste receptor (Homo sapiens, UniProt Q8TE23); assay: Receptor-based assay: sweetener EC50 alone and with test compound (enhancement ratio); format: cell-based; conditions: for Sucralose Enhancement EC50 Ratio: sweetener sucralose; for Sucrose Enhancement EC50 Ratio: sweetener sucrose; for Fructose Enhancement EC50 Ratio: sweetener fructose
T1 sequence (Q8TE23 20-839): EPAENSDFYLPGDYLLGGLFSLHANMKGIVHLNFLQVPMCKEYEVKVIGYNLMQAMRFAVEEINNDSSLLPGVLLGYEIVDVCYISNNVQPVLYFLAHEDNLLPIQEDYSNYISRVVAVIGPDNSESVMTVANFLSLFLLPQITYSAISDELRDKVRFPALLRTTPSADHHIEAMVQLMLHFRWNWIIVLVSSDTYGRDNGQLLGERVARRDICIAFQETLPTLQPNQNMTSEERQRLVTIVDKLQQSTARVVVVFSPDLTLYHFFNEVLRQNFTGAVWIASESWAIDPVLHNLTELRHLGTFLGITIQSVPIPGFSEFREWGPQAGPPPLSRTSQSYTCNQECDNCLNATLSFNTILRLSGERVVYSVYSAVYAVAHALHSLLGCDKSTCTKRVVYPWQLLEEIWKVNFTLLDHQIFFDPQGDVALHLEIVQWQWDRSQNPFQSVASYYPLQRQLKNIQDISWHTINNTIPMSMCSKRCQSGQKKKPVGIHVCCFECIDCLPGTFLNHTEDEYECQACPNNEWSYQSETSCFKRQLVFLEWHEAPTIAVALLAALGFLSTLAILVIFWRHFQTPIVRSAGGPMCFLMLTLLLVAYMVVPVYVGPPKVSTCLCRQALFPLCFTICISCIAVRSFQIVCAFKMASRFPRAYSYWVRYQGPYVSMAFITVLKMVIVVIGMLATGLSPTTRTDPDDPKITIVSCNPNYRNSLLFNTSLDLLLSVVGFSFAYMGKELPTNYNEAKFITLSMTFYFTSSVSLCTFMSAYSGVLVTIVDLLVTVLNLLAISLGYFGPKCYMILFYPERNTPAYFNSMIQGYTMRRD
T1 sequence (Q7RTX0 21-852 partner): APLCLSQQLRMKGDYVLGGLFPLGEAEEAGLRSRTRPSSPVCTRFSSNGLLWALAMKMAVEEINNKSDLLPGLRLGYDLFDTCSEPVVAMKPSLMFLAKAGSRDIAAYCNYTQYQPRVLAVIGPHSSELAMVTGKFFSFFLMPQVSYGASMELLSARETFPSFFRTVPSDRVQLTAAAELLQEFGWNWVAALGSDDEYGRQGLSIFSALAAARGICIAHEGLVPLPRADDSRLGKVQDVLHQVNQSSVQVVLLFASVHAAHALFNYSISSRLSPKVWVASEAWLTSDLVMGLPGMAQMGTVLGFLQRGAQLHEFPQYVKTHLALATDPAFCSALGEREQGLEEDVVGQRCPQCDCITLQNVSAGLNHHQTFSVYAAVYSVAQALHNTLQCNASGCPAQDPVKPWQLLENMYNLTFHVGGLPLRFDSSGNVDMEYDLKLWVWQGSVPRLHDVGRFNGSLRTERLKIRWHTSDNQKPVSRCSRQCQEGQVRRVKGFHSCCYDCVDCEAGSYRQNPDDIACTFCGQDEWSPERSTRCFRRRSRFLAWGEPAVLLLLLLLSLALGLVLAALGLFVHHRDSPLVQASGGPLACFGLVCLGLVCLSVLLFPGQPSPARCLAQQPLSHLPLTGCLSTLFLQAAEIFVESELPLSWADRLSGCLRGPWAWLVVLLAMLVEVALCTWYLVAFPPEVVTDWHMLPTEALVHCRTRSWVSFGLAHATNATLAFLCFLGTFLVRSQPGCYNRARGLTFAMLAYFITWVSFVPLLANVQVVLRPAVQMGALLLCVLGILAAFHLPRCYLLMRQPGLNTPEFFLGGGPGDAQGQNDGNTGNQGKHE
How it was run: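 Sucrose, sucralose or fructose EC50 measured on human T1R2/T1R3, alone and with 3, 10 or 50 μM test compound. Enhancement is the EC50 ratio without/with compound, binned A >20, B 10-20, C >1 to <10.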

[2] = Sensory experiments: paired comparison of sweetener alone vs sweetener plus test compound; format: in vivo, human; conditions: panelists
Description: as §1
as §2, with “final. […]” for “final.”

Structure (SMILES) | inherent sweetness intensity, compared with sucrose solution [1] [% sucrose] | Sucralose Enhancement EC50 Ratio (T1R2/T1R3 taste receptor; 10 μM test compound) | Sucrose Enhancement EC50 Ratio (T1R2/T1R3 taste receptor; 3 μM test compound) | Sucrose Enhancement EC50 Ratio (T1R2/T1R3 taste receptor; 10 μM test compound) | Sucrose Enhancement EC50 Ratio (T1R2/T1R3 taste receptor; 50 μM test compound) | sweetness intensity of the combination of test compound and 6% HFCS, compared with HFCS-alone ([2]; test compound at 10 ppm or less with 6% HFCS, low sodium buffer pH 2.8) | Equivalent Sucrose Conc. ([2]; test compound at 10 ppm or less with 6% sucrose, low sodium buffer pH 7.1) | Fructose Enhancement EC50 Ratio (T1R2/T1R3 taste receptor; 10 μM test compound) | Fructose Enhancement EC50 Ratio (T1R2/T1R3 taste receptor; 50 μM test compound) | Sucralose Enhancement EC50 Ratio (T1R2/T1R3 taste receptor; 50 μM test compound)
CC(C)(COc1cccc2c1C(N)=NS(=O)(=O)N2)Nc1ccnc(-n2ccnc2)n1 [Compound 200, 4-amino-5-(2-((2-(1H-imidazol-1-yl)pyrimidin-4-yl)amino)-2-methylpropoxy)1H-benzo[c][1,2,6]thiadiazine 2,2-dioxide] | < 1.5 | A (An “A” value indicates an enhancement ratio of greater than 20) | C (A “C” value indicates an enhancement ratio greater than 1 and less than 10) | C (A “C” value indicates an enhancement ratio greater than 1 and less than 10) | C (A “C” value indicates an enhancement ratio greater than 1 and less than 10) | greater than 6 % HFCS | A (An “A” value indicates an equivalent sucrose concentration of 10% or greater) | – | – | –
CCNC(=O)c1ccc(N2CCC[C@H](COc3cccc4c3C(N)=NS(=O)(=O)N4)C2)nc1 [Compound 501] | – | A (An “A” value indicates an enhancement ratio of greater than 20) | C (A “C” value indicates an enhancement ratio greater than 1 and less than 10) | C (A “C” value indicates an enhancement ratio greater than 1 and less than 10) | C (A “C” value indicates an enhancement ratio greater than 1 and less than 10) | – | – | C (A “C” value indicates an enhancement ratio greater than 1 and less than 10) | C (A “C” value indicates an enhancement ratio greater than 1 and less than 10) | A (An “A” value indicates an enhancement ratio of greater than 20)
Cc1cc(C)nc(NC(C)(C)COc2cccc3c2C(N)=NS(=O)(=O)N3)n1 [Compound 103] | – | A (An “A” value indicates an enhancement ratio of greater than 20) | C (A “C” value indicates an enhancement ratio greater than 1 and less than 10) | C (A “C” value indicates an enhancement ratio greater than 1 and less than 10) | C (A “C” value indicates an enhancement ratio greater than 1 and less than 10) | – | – | C (A “C” value indicates an enhancement ratio greater than 1 and less than 10) | C (A “C” value indicates an enhancement ratio greater than 1 and less than 10) | A (An “A” value indicates an enhancement ratio of greater than 20)
NC1=NS(=O)(=O)Nc2cccc(OC[C@H]3CCCN(c4cc(C(=O)NCC5CCCCC5)ccn4)C3)c21 [Compound 618] | – | B (A “B” value indicates an enhancement ratio from 10 to 20) | C (A “C” value indicates an enhancement ratio greater than 1 and less than 10) | C (A “C” value indicates an enhancement ratio greater than 1 and less than 10) | C (A “C” value indicates an enhancement ratio greater than 1 and less than 10) | – | – | – | C (A “C” value indicates an enhancement ratio greater than 1 and less than 10) | B (A “B” value indicates an enhancement ratio from 10 to 20)
CN(C)CCNC(=O)c1cccc(N2CCC[C@H](COc3cccc4c3C(N)=NS(=O)(=O)N4)C2)n1 [Compound 406] | – | A (An “A” value indicates an enhancement ratio of greater than 20) | C (A “C” value indicates an enhancement ratio greater than 1 and less than 10) | B (A “B” value indicates an enhancement ratio from 10 to 20) | B (A “B” value indicates an enhancement ratio from 10 to 20) | – | – | C (A “C” value indicates an enhancement ratio greater than 1 and less than 10) | C (A “C” value indicates an enhancement ratio greater than 1 and less than 10) | –
NC1=NS(=O)(=O)Nc2cccc(OC[C@H]3CCCN(c4cc(C(=O)NC5CCCCC5)ccn4)C3)c21 [Compound 609] | – | B (A “B” value indicates an enhancement ratio from 10 to 20) | C (A “C” value indicates an enhancement ratio greater than 1 and less than 10) | C (A “C” value indicates an enhancement ratio greater than 1 and less than 10) | C (A “C” value indicates an enhancement ratio greater than 1 and less than 10) | – | – | C (A “C” value indicates an enhancement ratio greater than 1 and less than 10) | C (A “C” value indicates an enhancement ratio greater than 1 and less than 10) | B (A “B” value indicates an enhancement ratio from 10 to 20)
NC1=NS(=O)(=O)Nc2cccc(OC[C@H]3CCCN(c4cccc(C(=O)NCC5CC5)n4)C3)c21 [Compound 417] | – | A (An “A” value indicates an enhancement ratio of greater than 20) | C (A “C” value indicates an enhancement ratio greater than 1 and less than 10) | C (A “C” value indicates an enhancement ratio greater than 1 and less than 10) | C (A “C” value indicates an enhancement ratio greater than 1 and less than 10) | – | – | – | C (A “C” value indicates an enhancement ratio greater than 1 and less than 10) | A (An “A” value indicates an enhancement ratio of greater than 20)
